Results reported in publication PMC12595476, “FibrilPaint to determine the length of Tau amyloids in fluids” (Proceedings of the National Academy of Sciences of the …, 2025).
Peptide text beside a SMILES is read from it. * marks the point of attachment. 5FAM = O=C1OC2(c3ccc(O)cc3Oc3cc(O)ccc32)c2ccc(C(=O)*)cc21

Key:
[1] = system: TauRD (Tau Repeat Domain Q244-E372, ΔK280); experiment: ThT assay of TauRD aggregation with titrated FibrilPaint peptides (ThT inhibition); format: biochemical, human; settings: for ThT end-plateau / emitted ThT signal: 20 μM TauRD, 5 µM heparin, 45 µM ThT, peptide 2, 0.2, 0.02 µM, pH 7.4, 37 °C, triplicates, N = 3; for Tht inhibition: Yes/No, Suppl. Table S1
From the text: We used Tau Repeat Domain (Q244-E372, TauRD) with the proaggregation mutation ΔK280 as a model for screening our FibrilPaint compounds. We performed a Thioflavin T (ThT) assay. ThT is an amyloid dye and provides a semiqualitative method used for the identification of amyloid structures in vitro and histology staining ([32], [33], [38]). A ThT assay is an established method to monitor protein fibrils formation, in which the fluorescent dye ThT emits fluorescence upon binding to fibrils ([38]). We identified 45 µM ThT as optimal concentration to study the kinetics of TauRD aggregation (SI Appendix, Fig. S1), in line with the literature ([39]).
Twenty µM TauRD + 5 µM heparin were incubated ± 45 µM ThT in 25 mM HEPES-KOH pH 7.4, 75 mM KCl/NaCl (37 °C). ThT fluorescence (440/485 nm) was recorded every 5 min for 24 h on a CLARIOstar® Plus; peptides were added as indicated. […]
Peptide synthesis and purification
The peptides were synthesized using a Liberty Blue Microwave-Assisted Peptide Synthesizer (CEM) with standard Fmoc chemistry and Oxyma/DIC as coupling reagents. The peptide concentrations were measured by UV spectroscopy. The peptides were labeled with 5(6)-carboxyfluorescein at their N’ termini. The peptides were cleaved from the resin with a mixture of 95% (v/v) trifluoroacetic acid (TFA), 2.5% (v/v) triisopropylsilane (TIS), 2.5% (v/v) triple distilled water (TDW) agitating vigorously for 3 hours at room temperature. The volume was decreased by N2 flux and the peptides precipitated by addition of 4 volumes of diethylether at -20 °C. The peptides were sedimented at -20 °C for 30 minutes, then centrifuged and the diethylether discarded. The peptides were washed three times with diethylether and dried by gentle N2 flux. The solid was dissolved in 1:2 volume ratio of acetonitrile (ACN):TDW, frozen in liquid Nitrogen and lyophilized.
The peptides were purified on a WATERS HPLC using a reverse-phase C18 preparative column with a gradient of ACN/TDW. The identity and purity of the peptides was verified by ESI mass spectrometry and Merck Hitachi analytical HPLC using a reverse-phase C8 analytical column.
Aggregation of 20 µM TauRD in 25 mM HEPES-KOH pH 7.4, 75 mM KCl, 75 mM
NaCl, ½ tablet/50 ml Protease Inhibitor, was induced by the addition 5 µM of heparin low molecular weight Impact of FibrilPaint peptides was assessed by adding 0.02, 0.2 or 2 µM of peptide.
Monitoring TauRD aggregation by thioflavin T (ThT) fluorescence
For monitoring the aggregation of TauRD by fluorescence, ThT was added to the aggregation mixture before addition of heparin. We used 45 µM ThT as standard condition, unless stated otherwise. […]. […]

TauRD fibrils [2] = molecular target: T1, TauRD fibrils (Homo sapiens, UniProt P10636, DEL597-597); experiment: FIDA (FibrilRuler Test): binding to TauRD fibrils; settings: detection of Tau amyloid fibrils with FIDA; Yes/No; Suppl. Table S1
T1 construct: We used Tau Repeat Domain (Q244-E372, TauRD) with the proaggregation mutation ΔK280; made in house; host or cells: E. coli BL21 Rosetta 2
From the text: (§1) Next, we screened the four FibrilPaint peptides for direct binding to TauRD fibrils. We developed an application of FIDA to determine the size of amyloid aggregates, called the FibrilRuler Test (Fig. 1B). FIDA is a recently established technique to measure size of protein complexes ([40], [41]). In FIDA, the detector records the fluorescence signal after passage of the sample through a long capillary. The sample passes a detector window, resulting in a size-dependent diffusion profile of the fluorescent compound. Smaller species diffuse faster and bigger ones slower, resulting in a narrow or broad dispersion of the fluorescent signal (Fig. 1B). Since FIDA readout relies on the physical diffusion properties of the sample, we can measure the hydrodynamic radius (Rh) of labeled species from the fluorescent signal ([42]–[44]). The Rh is a parameter corresponding to the size and shape of a molecule or a complex in solution. It is the radius of the sphere created by the tumbling particle. Rh values can be estimated from the structural coordinates, either by experimental methods or by predictions such as AlphaFold (SI Appendix, Table S2). For known structures, e.g., for many protein fibrils, an experimentally determined Rh value allows us to estimate the dimensions of the particle.
(§2) With this setup, we determined the Rh of FibrilPaint1 to 4 to be 1.7 nm each (SI Appendix, Table S1). The binding of the fluorescently labeled FibrilPaint peptide to protein fibrils increases the Rh value, as the peptide now tumbles together with the larger fibril (Fig. 1B). To measure the Rh of fibril complexes, we incubated preformed fibrils together with each of the four peptides in a 1:100 peptide:monomer ratio, using 200 nM peptide with fibrils made of 20 μM TauRD monomers.
(§3) Preformed or patient-derived fibrils (2 µM monomer) were mixed with 50 nM Fl-FibrilPaint1 and analyzed in capillary dissociation mode (25 °C, FIDA 1). […]
(§4) Data points were analysed using FIDAbio software, version 2.7. […]
Target sequence in this assay (P10636 with tags, fused parts or gaps isoform P10636-8 DEL280-280): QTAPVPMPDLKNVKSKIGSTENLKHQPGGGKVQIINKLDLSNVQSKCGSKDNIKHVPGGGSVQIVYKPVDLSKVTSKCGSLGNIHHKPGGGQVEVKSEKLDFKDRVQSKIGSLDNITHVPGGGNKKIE

[3] = FIDA: Rh of peptide alone (unbound); format: physicochemical; settings: peptide not bound to anything
From the text: as §1, §2, §3, §4

TauRD fibrils [4] = molecular target: T1, TauRD fibrils; experiment: Monolith (MST / spectral shift) binding to TauRD fibrils; settings: based on monomer concentration; 50 nM FibrilPaint1, TauRD fibrils 0.5 nM to 10 µM, pH 7.5, 37 °C; N = 3
Experimental: (§5) We confirmed that FibrilPaint1 binds specifically TauRD fibrils and not monomers by assessing binding affinity with monolith spectral shift analysis (Fig. 1 D and E). […] Since many monomers are needed to form one fibril, true affinity lies higher.
(§6) FibrilPaint1 (50 nM) was titrated with TauRD monomer or fibrils (0.5 nM to 10 µM) at 37 °C (Monolith NT.115); binding was extracted from the 5 s MST response.
(§7) Aragonès Pedrola, Dekker, et al. August 2025 FibrilPaint
(§8) FibrilRuler Test: Size measurement with Flow Induced Dispersion […]
(§9) Flow Induced Dispersion Analysis (FIDA) was used to determine fibril size. The FIDA experiments were performed using a FIDA1 with a 480 nm excitation source. […]
as §4
(§10) Binding between FibrilPaint1 and TauRD monomers and fibrils was analyzed using Monolith (NanoTemper Technologies) Microscale thermophoresis system (MST). Thermophoresis was monitored at a concentration of 50 nM of FibrilPaint1 and a dilution series of the sample of interest, in 25 mM HEPES-KOH pH 7.5, 75 mM KCl, 75 mM NaCl. […]
(§11) Using equation 1, where L is the length and R the radius of the analysed particle, the mean length of the fibrils as function of Rh can be calculated.
(§12) As a model, PHF Fibril layers were stacked on top of each other using PyMOL software. […] Resulting structures were analysed for their Rh using FIDAbio hydrodynamic radii predictor.

TauRD monomers = molecular target: T2, TauRD monomers (Homo sapiens, UniProt P10636, DEL597-597); experiment: Monolith (MST / spectral shift) binding to TauRD monomers; settings: 50 nM FibrilPaint1, 37 °C, N = 3, unit inferred
T2 construct: We used Tau Repeat Domain (Q244-E372, TauRD) with the proaggregation mutation ΔK280; made in house; host or cells: E. coli BL21 Rosetta 2
T2 sequence (P10636 with tags, fused parts or gaps isoform P10636-8 DEL280-280): as above
Experimental: as §5, §6, §7, §8, §9, §4, §10, §11, §12

Amyloid-β (Aβ) plaques = settings: in words; cited from earlier work
From the text: The formation of amyloid fibrils is one of the earliest pathological hallmarks of neurodegenerative diseases ([3], [6], [12]–[15]). […] In AD, Aβ aggregation outside the cell precedes Tau aggregation inside the cell ([4], [13], [18]).

(Fl)-PWIRRPWWPWTTPTGSGSEEVD [FibrilPaint2, 22-residue fluorescein-labeled peptide]
ThT end-plateau / emitted ThT signal [1]: lower the end-plateau in a dose-dependent manner | Tht inhibition [1]: Yes | Fibril binding (TauRD fibrils [2]): No | Hydrodynamic radius (Rh) [3]: 1.7 nm

CC(C)[C@H](NC(=O)[C@H](CCC(=O)O)NC(=O)[C@H](CCC(=O)O)NC(=O)[C@H](CO)NC(=O)CNC(=O)[C@H](CO)NC(=O)CNC(=O)[C@H](Cc1c[nH]cn1)NC(=O)[C@@H]1CCCN1C(=O)[C@H](Cc1c[nH]cn1)NC(=O)[C@H](Cc1c[nH]cn1)NC(=O)[C@H](Cc1c[nH]c2ccccc12)NC(=O)[C@@H]1CCCN1C(=O)[C@H](Cc1c[nH]c2ccccc12)NC(=O)[C@H](Cc1c[nH]c2ccccc12)NC(=O)[C@@H]1CCCN1C(=O)[C@H](CCCNC(=N)N)NC(=O)[C@H](CCCNC(=N)N)NC(=O)[C@H](Cc1c[nH]c2ccccc12)NC(=O)[C@H](Cc1c[nH]c2ccccc12)NC(=O)[C@@H]1CCCN1C(=O)c1ccc2c(c1)C(=O)OC21c2ccc(O)cc2Oc2cc(O)ccc21)C(=O)N[C@@H](CC(=O)O)C(=O)O [FibrilPaint1] (5FAM-PWWRRPWWPWHHPHGSGSEEVD-OH)
Kd (TauRD fibrils [4]): 1600 nM | Kd (TauRD monomers): > 10000 nM

(Fl)-PWWDDPWWPWHHPHGSGSEEVD [FibrilPaint4, 22-residue fluorescein-labeled peptide]
ThT end-plateau / emitted ThT signal [1]: lower the end-plateau in a dose-dependent manner | Tht inhibition [1]: Yes | Fibril binding (TauRD fibrils [2]): No | Hydrodynamic radius (Rh) [3]: 1.7 nm

(Fl)-PWWDDPWWPWTTPTGSGSEEVD [FibrilPaint3, 22-residue fluorescein-labeled peptide]
ThT end-plateau / emitted ThT signal [1]: lower the end-plateau in a dose-dependent manner | Tht inhibition [1]: Yes | Fibril binding (TauRD fibrils [2]): No | Hydrodynamic radius (Rh) [3]: 1.7 nm

B1: Lecanemab: antibody approved to target Amyloid-β (Aβ) plaques (antibody, chains of the INN, looked up, V domains shown)
VH: EVQLVESGGGLVQPGGSLRLSCSASGFTFSSFGMHWVRQAPGKGLEWVAYISSGSSTIYYGDTVKGRFTISRDNAKNSLFLQMSSLRAEDTAVYYCAREGGYYYGRSYYTMDYWGQGTTVTVSS
VL: DVVMTQSPLSLPVTPGAPASISCRSSQSIVHSNGNTYLEWYLQKPGQSPKLLIYKVSNRFSGVPDRFSGSGSGTDFTLRISRVEAEDVGIYYCFQGSHVPPTFGPGTKLEIK
clinical effect (Amyloid-β (Aβ) plaques): modest | risks (Amyloid-β (Aβ) plaques): significant risks involved
